In PMC8311653, “Design, Synthesis, In Vitro and In Vivo Characterization of Selective NKCC1 Inhibitors for the Treatment of Core Symptoms in Down Syndrome” (Journal of Medicinal Chemistry, 2021):
≈ marks a conversion by molar mass, not a printed value. Entries after “also recorded” stand apart in the source; their conditions may differ.

How the values were obtained:
[1] = Aqueous kinetic solubility in PBS pH 7.4; type: physicochemical; conditions: phosphate buffered saline (PBS); aqueous kinetic solubility from 10 mM DMSO solution in PBS pH 7.4; target concentration 250 μM (final DMSO 2.5%)
Method: 1. Aqueous kinetic solubility.
30 µL aliquots of 10 mM DMSO stock solution of the test compound were incubated in Phosphate
Buffered Saline (PBS) at pH 7.4 at 25°C for 24h. After centrifugation the dissolved compound in the
supernatant was quantified by LC-MS/MS.
Aqueous kinetic solubility was determined by UV quantification at
215 nm. […]

[2] = target: T1, NKCC1 (Homo sapiens, UniProt P55011); assay: Cl- influx assay in NKCC1-transfected HEK293 cells; type: cell-based; conditions: for inhibition at 10 µM: HEK293, read-out: Inhibition 10 μM Cl- influx (%); for inhibition at 100 µM: HEK293, read-out: Inhibition 100 μM Cl- influx (%); for Inhibition 10 μM Cl- influx (%) / Inhibition 100 μM Cl- influx (%): NKCC1-transfected HEK293 cells
T1 construct: host or cells: HEK293
T1 sequence (P55011 1-1212): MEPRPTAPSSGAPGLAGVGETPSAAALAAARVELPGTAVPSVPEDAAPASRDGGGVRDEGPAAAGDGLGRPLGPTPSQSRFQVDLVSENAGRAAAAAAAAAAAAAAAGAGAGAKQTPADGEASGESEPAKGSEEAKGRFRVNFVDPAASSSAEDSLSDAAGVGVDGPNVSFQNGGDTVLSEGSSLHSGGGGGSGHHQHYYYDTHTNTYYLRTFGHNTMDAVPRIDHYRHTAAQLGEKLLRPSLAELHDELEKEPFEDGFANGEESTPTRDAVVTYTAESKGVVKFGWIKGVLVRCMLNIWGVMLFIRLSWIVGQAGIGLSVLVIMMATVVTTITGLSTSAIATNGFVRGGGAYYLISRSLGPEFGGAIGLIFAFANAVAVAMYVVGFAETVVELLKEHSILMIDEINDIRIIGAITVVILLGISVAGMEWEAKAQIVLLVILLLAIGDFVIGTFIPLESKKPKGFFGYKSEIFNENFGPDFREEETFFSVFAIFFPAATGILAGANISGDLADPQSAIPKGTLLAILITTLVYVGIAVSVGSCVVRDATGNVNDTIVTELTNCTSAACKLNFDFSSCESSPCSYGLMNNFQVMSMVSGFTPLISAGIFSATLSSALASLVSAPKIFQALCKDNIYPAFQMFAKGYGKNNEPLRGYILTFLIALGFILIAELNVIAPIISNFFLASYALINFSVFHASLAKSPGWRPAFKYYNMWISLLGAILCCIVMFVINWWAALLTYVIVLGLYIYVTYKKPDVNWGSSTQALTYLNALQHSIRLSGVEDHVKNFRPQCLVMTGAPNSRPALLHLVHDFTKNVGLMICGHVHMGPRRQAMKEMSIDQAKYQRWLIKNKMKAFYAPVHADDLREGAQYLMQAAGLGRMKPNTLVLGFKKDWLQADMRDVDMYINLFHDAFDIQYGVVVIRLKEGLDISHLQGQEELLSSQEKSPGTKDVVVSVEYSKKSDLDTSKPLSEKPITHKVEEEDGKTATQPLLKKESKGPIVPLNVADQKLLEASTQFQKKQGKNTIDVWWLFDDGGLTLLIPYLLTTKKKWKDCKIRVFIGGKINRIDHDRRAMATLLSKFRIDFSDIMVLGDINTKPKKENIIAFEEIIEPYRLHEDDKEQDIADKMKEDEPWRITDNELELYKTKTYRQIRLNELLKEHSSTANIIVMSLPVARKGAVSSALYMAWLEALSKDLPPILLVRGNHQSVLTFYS
Method: HEK293 cells were cultured in Dulbecco’s modified Eagle’s medium (DMEM) supplemented with 10% fetal bovine serum, 1% L-glutamine, 100 U/mL penicillin, and 100 μg/mL streptomycin and maintained at 37 °C in a 5% CO2 humidified atmosphere. To assess NKCC1 and NKCC2 activity (Cl^– influx assay), 3 million HEK cells were plated in a 10 cm cell-culture dish and transfected with a transfection mixture comprising 5 mL of DMEM, 4 mL of Opti-MEM, 8 μg of DNA plasmid coding for NKCC1 (PRK-NKCC1 obtained from Medical Research Council and the University of Dundee), NKCC2 (OriGene plasmid #RC216145) subcloned in PRK5 plasmid, or mock control (empty vector), together with 8 μg of a plasmid coding for the Cl^–-sensitive variant of the membrane-targeted fluorescent protein YFP, mbYFPQS (Addgene plasmid #80742),[53] and 32 μL of Lipofectamin 2000. To assess KCC2 activity (Tl influx assay), cells were transfected with 8 μg of KCC2[54] subcloned in the PRK5 plasmid or mock control (empty vector) and 16 μL of Lipofectamin 2000. After 4 h, the cells were collected and plated in 96-well black-walled, clear-bottomed plates at a density of 2.5 × 10^4. After 48 h, cells were used for the Cl^– or Tl influx assays. All reagents were purchased from Life Technologies, unless otherwise specified.
Transfected cells were treated with 10 μM or 100 μM bumetanide (as positive controls), DMSO (as the negative control), or with each of our compounds in 100 μL/well of a Cl^–-free hypotonic solution (67.5 mM Na^+ gluconate, 2.5 mM K^+ gluconate, 15 mM HEPES pH 7.4, 50 mM glucose, 1 mM Na2HPO4, 1 mM NaH2PO4, 1 mM MgSO4, and 1 mM CaSO4). After 30 min of incubation, plates were loaded into a Victor 3V (PerkinElmer) multiplate reader equipped with an automatic liquid injector system, and fluorescence of Cl^–-sensitive mbYFPQS was recorded with excitation at 485 nm and emission at 535 nm. For each well, fluorescence was first recorded for 20 s of the baseline and for 60 s after delivery of a NaCl concentrated solution (74 mM final concentration in the assay well). Fluorescence of Cl^–-sensitive mbYFPQS is inversely correlated to the intracellular Cl^– concentration;[53] therefore, chloride influx into the cells determined a decrease in mbYFPQS fluorescence. To represent the fluorescent traces in time, we normalized the fluorescence value for each time point to the average of the fluorescence value of the first 20 s of the baseline (ΔF/F0). To quantify the average effects as represented by the bar plots, we expressed the decrease in fluorescence upon NaCl application as the average of the last 10 s of ΔF/F0 normalized traces. Moreover, for each experiment, to account for the contribution of Cl^– changes that were dependent on transporters/exchangers other than NKCC1 or NKCC2, we subtracted the value of the last 10 s of ΔF/F0 normalized traces obtained from mock-transfected cells (either control or treated) from the respective ΔF/F0 value obtained from the cells transfected with NKCC1 or NKCC2. We then presented in the figures all the data as a percentage of the fluorescence decrease versus the value of the control DMSO.

[3] = In vitro metabolic stability in mouse liver microsomes; conditions: tissue homogenate, pH 7.4
Method: 1. Aqueous kinetic solubility. […]
3. In vitro mouse microsomial stability. […]
microsomes (Sekisui Xenotech, LCC), 0.1M Tris-HCl buffer (pH 7.4), and 10% DMSO. The final […]
After pre-incubation, the cofactors (NADPH, G6P, G6PDH, MgCl2 pre-dissolved in 0.1M Tris-HCl) were added to the incubation mixture and the incubation was continued at 37 °C for 1h. At each time point (0, 5, 15, 30, 60 min), 30µL of incubation mixture was diluted with 200 µL cold acetonitile spiked with 200 nM of warfarin as internal standard, followed by centrifugation at 3500 g for 30 min. The supernatant was further diluted with H2O (1:1) for analysis.
An aliquot of 200 µl of the supernatant was removed, and the concentration of the test compound was […]
quantified by LC-MS/MS. The percentage of the test compound remaining at each time point relative […]
to t=0 was calculated. The half-lives (t½) were determined by a one-phase decay equation using a […]
non-linear regression of compound concentration vs time.

| SMILES | solubility at 24 h [1] [µM] | inhibition at 10 µM [2] [%] | inhibition at 100 µM [2] [%] | half-life at 5 μM [3] [min] | Inhibition 10 μM Cl- influx (%) [2] | Inhibition 100 μM Cl- influx (%) [2] |
| --- | --- | --- | --- | --- | --- | --- |
| CCCCCCNc1ccc([N+](=O)[O-])cc1S(=O)(=O)NC [Compound 3, 2-(Hexylamino)-N-methyl-5-nitro-benzenesulfonamide] | 1 (≈ 0.315 µg/mL) | 6.4 ± 3.4 | 29.4 ± 2.8 | < 5 | – | – |
| CNS(=O)(=O)c1cc([N+](=O)[O-])ccc1NCCC(C)(C)C [Compound 4, 2-(3,3-Dimethylbutylamino)-N-methyl-5-nitro-benzenesulfonamide] | 3 (≈ 0.946 µg/mL) | 17.7 ± 3.9 | 28.7 ± 4.4 | 6 | – | – |
| CCCCNc1ccc([N+](=O)[O-])cc1S(N)(=O)=O [Compound 5, 2-(Butylamino)-5-nitro-benzenesulfonamide] | 85 (≈ 23.2 µg/mL) | – | 4.7 ± 13.3 | 6 | Inactive | – |
| CCCCCCNc1ccc([N+](=O)[O-])cc1S(N)(=O)=O [Compound 6, 2-(Hexylamino)-5-nitro-benzenesulfonamide] | 6 (≈ 1.81 µg/mL) | – | 3.8 ± 5.6 | < 5 | no inhibitory activity; also recorded: Inactive | – |
| CC(C)(C)CCNc1ccc([N+](=O)[O-])cc1S(N)(=O)=O [Compound 8, 2-(3,3-Dimethylbutylamino)-5-nitro-benzenesulfonamide] | – | – | 14.5 ± 10.6 | – | Inactive | – |
| CCCCNc1ccc([N+](=O)[O-])cc1S(=O)(=O)NC [Compound 9, 2-(Butylamino)-N-methyl-5-nitro-benzenesulfonamide] | – | – | 13.3 ± 11.4 | – | Inactive | – |
| CCCCCCCCNc1ccc([N+](=O)[O-])cc1S(=O)(=O)NC [Compound 10, N-Methyl-5-nitro-2-(octylamino)benzenesulfonamide] | – | – | – | – | Inactive | Inactive |
| CCCCNc1ccc([N+](=O)[O-])cc1S(=O)(=O)N(C)C [Compound 11, 2-(Butylamino)-N,N-dimethyl-5-nitro-benzenesulfonamide] | – | – | 15.2 ± 9.6 | – | Inactive | – |
| CCCCCCCCNc1ccc([N+](=O)[O-])cc1S(=O)(=O)N(C)C [Compound 13, N,N-Dimethyl-5-nitro-2-(octylamino)benzenesulfonamide] | – | – | – | – | Inactive | Inactive |
| CN(C)S(=O)(=O)c1cc([N+](=O)[O-])ccc1NCCC(C)(C)C [Compound 14, 2-(3,3-Dimethylbutylamino)-N,N-dimethyl-5-nitro-benzenesulfonamide] | – | 10 ± 4.9 | 17 ± 11.9 | – | – | – |
| CCCCNc1ccc(C(=O)O)cc1S(N)(=O)=O [Compound 15, 4-(Butylamino)-3-sulfamoyl-benzoic Acid] | – | – | 6.4 ± 5.3 | – | Inactive | – |
| CC(C)(C)CCNc1ccc(C(=O)O)cc1S(N)(=O)=O [Compound 18, 4-(3,3-Dimethylbutylamino)-3-sulfamoyl-benzoic Acid] | – | – | 5.1 ± 4.9 | – | Inactive | – |
| CCCCNc1ccc(C(=O)O)cc1S(=O)(=O)NC [Compound 19, 4-(Butylamino)-3-(-N-methylsulfamoyl)benzoic Acid] | – | 6.4 ± 2.1 | 6.2 ± 5.7 | – | – | – |
| CNS(=O)(=O)c1cc(C(=O)O)ccc1NCCC(C)(C)C [Compound 22, 4-(-N-3,3-Dimethylbutylamino)-3-(methylsulfamoyl)benzoic Acid] | – | – | 2.6 ± 3.5 | – | Inactive | – |
| CCCCNc1ccc(C(=O)O)cc1S(=O)(=O)N(C)C [Compound 23, 4-(Butylamino)-3-(-N,N-dimethylsulfamoyl)benzoic Acid] | – | 2.6 ± 2.8 | 15.6 ± 5.4 | – | – | – |
| COCCCCCCNc1ccc(C(=O)O)cc1S(=O)(=O)N(C)C [Compound 31, 3-(-N,N-Dimethylsulfamoyl)-4-(6-methoxyhexylamino)benzoic Acid] | > 250 | – | – | – | did not show any NKCC1 inhibition; also recorded: Inactive | did not show any NKCC1 inhibition; also recorded: Inactive |
